Measurements as given in patent US20070197470A1, “Use of n-acetyl-d-aminogylcosamine in preparation of drugs for modulating microorganisms on mucous membrane” (priority 2003, published 2007).
Entries after “also recorded” stand apart in the source; their conditions may differ.

Tests used:
Proteus Mirabilis = experiment: Promoting wave test (bio-wave model); type: cell-based
Text: 1.1 Samples: Pure Compound of Formula (I)
• Strain: Proteus Mirabilis (which should comply with the following biological reaction characteristics: dynamics (+), urease (+), lactose (−), glucose (+), H2S (−), phenylalanine deaminase (+). • Culture medium: modified LB culture medium (the component of the composition are: 1% trytones, 0.5% yeast extract, 1% sodium chloride, 0.1% glucose, 0.002% TTC, and pH=7.2˜7.4). 1.3 Experimental Method:
The experiment adopted a bio-wave model for studying the promoting wave function of the compound of formula (I).

[1] = in vivo
Text: • 1. Acute toxicity test: including tests of administrating medicine orally, intravenous injection and maximum limit amount for administration; • 2. Ames test; • 3. Micronucleus test of bone marrow cell of small mouse; • 4. Abnormal sexual test for the sperm of mouse; • 5. Abnormal aberrance test for the chromosin of mouse's testis; • 6. Chronic lethal test; • 7. Subchronic toxicity (feed for 90 days) test; • 8. Traditional deformity-inducing test;

Pseudomonas aeruginosa = experiment: Tests of bacterial colonization resistance; type: in vivo; conditions: intestinal mucosa of test animals, different concentrations
Experimental: Pseudomonas aeruginosa is used in the tests of bacterial colonization resistance of the compound of formula (I). The intestinal mucosa of test animals that were pre-administrated with Pseudomonas aeruginosus and were treated by the compound of formula (I) with different concentrations was detected by in situ colonization, qualitative and quantitative methods.

[2] = tested on: patients with symptoms of microecological imbalance; experiment: Clinical trial, effects for regulating mucocutaneous microecology; type: in vivo, human
Text: (§1) 56 patients with symptoms of microecological imbalance, including 20 patients with oral complaints, such as halitosis, oral infections caused by clinically unknown pathogenic bacteria, 20 patients with subaxilary complaints, such as slimy sensation or bromidrosis, and 16 patients with low […] of gynecological genitourinary tract caused by unknown source of infectious pathogen, were separately treated by mouthwash or topical sprinkle of 1% N-acetyl-D-glucosamine aqueous solution twice daily for 7 days. […] Observation of effects of N-acetyl-D-glucosamine for regulating mucocutaneous microecology

[3] = tested on: flora of mucocutaneous microecology; experiment: Clinical trial, detection of flora of mucocutaneous microecology (detection rates of various bacteria); type: in vivo, human
Text: as §1, with “Detection results” for “Observation”, “flora” for “effects”, “of” for “of N-acetyl-D-glucosamine for regulating”, “microecology regulated by N-acetyl-D-glucosamine (detection rates of various bacteria)” for “microecology”

[4] = Microecological imbalance of gynecological genitourinary tract, 16 cases
[5] = Subaxillary slimy sensation, 10 cases

## CC(=O)N[C@@H]1[C@@H](O)[C@H](O)[C@@H](CO)O[C@H]1O [N-acetyl-D-glucosamine]
Proteus Mirabilis
  promoting wave function: many fine waves on each ring emerged; also recorded: has promoting function to bio-waves
[1]
  acute test dosage relative to the injection dosage for human being: 300 times
  dosage at which the acute toxicosis reaction had not appeared: more than 2 g/kg
[1]; 4 weeks
  maximum dosage with no intoxication reaction: 1 g/kg
Pseudomonas aeruginosa
  colonization resistance against Pseudomonas aeruginosa: increased with the increase of its concentration
[2]; 56 patients, 1% aqueous solution mouthwash or topical sprinkle twice daily for 7 days
  total effective rate: 87.8%
[2]; Bromidrosis, 10 cases
  Cured: 5
  Effective: 3
  Effective rate (%): 80%
  Ineffective: 2
[2]; [4]
  Cured: 7
  Effective: 6
  Effective rate (%): 81.3%
  Ineffective: 3
[2]; Oral compliant, 20 cases
  Cured: 8
  Effective: 10
  Effective rate (%): 90%
  Ineffective: 2
[2]; [5]
  Cured: 7
  Effective: 3
  Effective rate (%): 100%
  Ineffective: 0
[3]; Buccal cavity (salivary bacteria), after regulation, before regulation 12
  detection rate of helicoids: helicoids (0)
[3]; Buccal cavity (salivary bacteria), after regulation, before regulation 18
  detection rate of corynebacterium diphtheroides: diphtheroides (8),
[3]; Buccal cavity (salivary bacteria), after regulation, before regulation 23
  detection rate of Streptococcus mutans: (7), streptococcus
[3]; Buccal cavity (salivary bacteria), after regulation, before regulation 40
  detection rate of streptococcus salivarius: salivarius (90),
[3]; Buccal cavity (salivary bacteria), after regulation, before regulation 50
  detection rate of Neisser's coccus: (95), corynebacterium
[3]; Buccal cavity (salivary bacteria), after regulation, before regulation 60
  detection rate of bacteroides: bacteroides (30),
[3]; Skin of axillary fossa, after regulation, before regulation 18
  detection rate of aerobic coryneform bacteria: bacteria (12), pityro-
[3]; Skin of axillary fossa, after regulation, before regulation 20
  detection rate of Staphylococci: Staphylococci (36),
[3]; Skin of axillary fossa, after regulation, before regulation 24
  detection rate of pityrosporum furfur: sporum furfur (15),
[3]; Skin of axillary fossa, after regulation, before regulation 40
  detection rate of bacillus polymyxa odour: odour (9)
[3]; Woman's genitourinary tract, after regulation, before regulation 18
  detection rate of bacillus acidi lactici: acidi lactici (60),
[3]; Woman's genitourinary tract, after regulation, before regulation 29
  detection rate of bacillus coli: bacillus coli (10)
[3]; Woman's genitourinary tract, after regulation, before regulation 38
  detection rate of Staphylococcus epidermidis: midis (35), bacillus
[3]; buccal cavity, skin of axillary fossa and woman's genitourinary tract
  change of flora after use: autochthonous flora increased and allochthonous flora decreased
